The record followed here is US20250066445A1, “OBESITY TREATMENT AND PREVENTION METHODS” (VAULT BIOSCIENCES, INC., priority 2022, published 2025).

Common to all, as to assay type: in vivo, human
Assay [1] can be described thus: Example 2 clinical study combining semaglutide (injection) and fasting. The settings on record: 15-hour fasting, dose weeks 1-4: .25/.50/.50/1 mg. An excerpt:
Example 2—Clinical Study of Combining Semaglutide (injection) and Fasting Patients are subject to a combination HMT/HNT treatment protocol as described in Table 6 below. […] [table]

Assay [2] can be described thus: Example 1 clinical study combining semaglutide (injection) and fasting, Patient 1. Particulars: One-Meal-A-Day. An excerpt: Example 1—Clinical Study of Combining Semaglutide (Injection) and Fasting
Patient 1 was subject to a combination HMT/HNT treatment protocol as described below.

A short description of assay [3]: Example 15 clinical study combining dulaglutide and fasting. The settings on record: 18-hour fasting, dose weeks 1-4: 0.2/0.375/0.375/0.6 mg. An excerpt:
Example 15—Clinical Study of Combining Dulaglutide and Fasting Patients are subject to a combination HMT/HNT treatment protocol as described in Table 19 below. […] [table]

The nature of assay [4]: Example 13 clinical study combining dulaglutide and fasting. Particulars: One-Meal-A-Day, dose weeks 1-4: 0.2/0.375/0.375/0.6 mg. An excerpt:
Example 13—Clinical Study of Combining Dulaglutide and Fasting Patients are subject to a combination HMT/HNT treatment protocol as described in Table 17 below. […] [table]

A short description of assay [5]: Example 14 clinical study combining dulaglutide and fasting. Particulars: 15-hour fasting, dose weeks 1-4: 0.2/0.375/0.375/0.6 mg. An excerpt: Example 14—Clinical Study of Combining Dulaglutide and Fasting Patients are subject to a combination HMT/HNT treatment protocol as described in Table 18 below. […] [table]
[6] abbreviates: no exercise, no calorie counting.
Where [7] appears, read: starting weight 282 lbs, 30 days, dose weeks 1-4: .25/.50/.50/1 mg, no exercise, no calorie counting.

Consider Semaglutide, for which the Hunger entry is recorded as “no discernable or unusual hunger” in assay [1]; “No discernable/unusual hunger” in assay [2] (30 days, dose weeks 1-4: .25/.50/.50/1 mg); “no discernable or unusual hunger” in assay [2] (30 days, dose weeks 1-4: .25/.50/.50/1 mg, listed as Semaglutide (Injection)). Moreover, the “Therapeutic effects (e.g. weight loss)” value in assay [1] (setting [6]) is “Desirable therapeutics effects (e.g. weigh loss) are achieved”. Besides, the Weight lost in assay [2] (in 30 days, no exercise, no caloric restrictions) was determined as 30 pounds. Further, the “% Bodyweight Reduction” value is −9.6% in assay [2] (starting weight 282 lbs, 30 days, dose weeks 1-4: .25/.50/.50/1 mg) and “approximately 9.6%” in assay [2] (starting weight 282 lbs, 30 days, dose weeks 1-4: .25/.50/.50/1 mg, listed as Semaglutide (Injection)). For the same substance, the Bodyweight reduction in assay [2] (setting [7]) is recorded as −30 lbs. Besides, in assay [2] (setting [7]), the “Ending Weight” value turned out to be 252 lbs.
For Dulaglutide, the Hunger entry in assay [3], in assay [4] and in assay [5] was “no discernable or unusual hunger” throughout. Moreover, the “Therapeutic effects (e.g. weight loss)” value in assay [3] (setting [6]), in assay [4] (setting [6]) and in assay [5] (setting [6]) was “Desirable therapeutics effects (e.g. weigh loss) are achieved” each time.
